Values of other authors, collected in US20100047334A1, “PH SENSITIVE LIPOSOME COMPOSITIONS FOR CONTROLLING SURFACE TOPOGRAPHY AND BINDING REACTIVITY IN FUNCTIONALIZED LIPOSOMES” (priority 2006, published 2010).
Like-named read-outs stand apart in the source and are kept apart here.

Tests used:
streptavidin = streptavidin (Streptomyces avidinii, UniProt P22629)
[1] = highest reported value; 0.1 ionic strength; dimyristoyl- and dipalmitoyl-phosphatidylserine membranes

streptavidin, sequence (P22629 25-183): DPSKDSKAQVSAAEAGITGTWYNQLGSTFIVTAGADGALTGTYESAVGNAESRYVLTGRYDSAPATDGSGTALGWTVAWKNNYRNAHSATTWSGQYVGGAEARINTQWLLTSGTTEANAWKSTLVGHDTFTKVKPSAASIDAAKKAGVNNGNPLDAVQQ

Molecule: CCCCCCCCCCCCCCCC(=O)OC[C@H](COP(=O)([O-])OCC[N+](C)(C)C)OC(=O)CCCCCCCCCCCCCCC [DPPC lipids, 1,2-Dipalmitoyl-sn-Glycero-3-Phosphocholine]
- lateral diffusion coefficient (at 37° C. (gel)): 10^−10 cm^2/s
- lateral diffusion coefficient (in the fluid state): 5×10^−8 cm^2/s

Molecule: O=C(O)CCCC[C@@H]1SC[C@@H]2NC(=O)N[C@@H]21 [biotin]
- Ka of the biotin-streptavidin link (streptavidin): 10^13 M^−1

Molecule: phosphatidylserine
- apparent pKa of phosphatidylserine's carboxyl group [1]: 5.5
